In patent publication US12371454B2, “Cyclic peptide compound having Kras inhibitory action” (priority 2019, dated 2025):
Starred links: 1 amine or outer side, 2 acyl side, 3 side chain; linkers in the order of their positions; H or OH if unused. Positions of bridges follow the written chain, without caps; N, C: chain ends. Non-standard residues stand in square brackets, D forms with d. Residues, ends and D or L forms follow the SMILES beside them. *: point of attachment. hPhe(3-Cl-4-CF3) = N[C@@H](CCc1ccc(C(F)(F)F)c(Cl)c1)C(=O)O; hPhe(3-F,4-CF3) = N[C@@H](CCc1ccc(C(F)(F)F)c(F)c1)C(=O)O; NEtPhe(4-Cl) = CCN[C@@H](Cc1ccc(Cl)cc1)C(=O)O; 3Oxa8azabicyclo(3.2.1)octane = C1CC2COCC1N2*; NMeAbu(4,4,4-F3) = CN[C@@H](CC(F)(F)F)C(=O)O; NMePhe(4-Me) = CN[C@@H](Cc1ccc(C)cc1)C(=O)O; NMePhe(4-I) = CN[C@@H](Cc1ccc(I)cc1)C(=O)O; hPhe(4-Cl) = N[C@@H](CCc1ccc(Cl)cc1)C(=O)O; NMedβ3hAla = C[C@H](CC(=O)[*:2])N(C)[*:1]; NMeAla(cPent) = CN[C@@H](CC1CCCC1)C(=O)O; NMeGly(cPent) = CN[C@H](C(=O)O)C1CCCC1; dαMeGly(allyl) = C=CC[C@@](C)(N)C(=O)O; NMeGly(cBu) = CN[C@H](C(=O)O)C1CCC1; NMeCha = CN[C@@H](CC1CCCCC1)C(=O)O; NMeChg = CN[C@H](C(=O)O)C1CCCCC1; NMeI = CC[C@H](C)[C@H](NC)C(=O)O; NMeD = CN[C@@H](CC(=O)O)C(=O)O; NMeHpra = C#CCC[C@H](NC)C(=O)O; NMeL = CN[C@@H](CC(C)C)C(=O)O; NEtAla = CCN[C@@H](C)C(=O)O; NMeV = CN[C@H](C(=O)O)C(C)C; d(β3hA) = C[C@@H](N)CC(=O)O; NMeS = CN[C@@H](CO)C(=O)O; NMeA = CN[C@@H](C)C(=O)O; Piperidide = C1CCN(*)CC1; Pyrrolidide = C1CCN(*)C1; dNMeA = CN[C@H](C)C(=O)O; Ac5c = NC1(C(=O)O)CCCC1; Aze = O=C(O)[C@@H]1CCN1; Cyclobutyl = C1CC(*)C1; Aib = CC(C)(N)C(=O)O; Sar = CNCC(=O)O

What was measured:
[1] = target: T1, Kras and SOS1 (biotin-tagged human Kras loaded with GDP, His-tagged human SOS1) (Homo sapiens, UniProt P01116, G12D); assay: Protein-protein interaction inhibition between Kras and SOS1 (KrasGl2D-SOS PPI) using AlphaScreen; type: binding; conditions: AlphaScreen; biotin-tagged human Kras loaded with GDP, His-tagged human SOS1; read-out: KRAS G12D-SOS PPI IC50
T1 construct: made in house; host or cells: E. coli (stated for Kras only)
Method in brief: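 Kras was produced in E. coli, purified, then loaded with GDP. It was paired via streptavidin acceptor beads with His-SOS1 held on nickel donor beads, and proximity signal at 520-620 nm was read after 680 nm illumination.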

[2] = tested on: Human pancreatic cancer cell line AsPC-1; assay: Measurement of AsPC-1 cell growth inhibition (AsPC-1 CGI); type: cell-based; conditions: 96 h
Method in brief: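 AsPC-1 cells in 15% FBS RPMI-1640 were exposed to test compound for 96 hours at 37° C, with CellTiter-Glo as endpoint.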

T1 sequence (P01116 1-188 isoform P01116-2 G12D): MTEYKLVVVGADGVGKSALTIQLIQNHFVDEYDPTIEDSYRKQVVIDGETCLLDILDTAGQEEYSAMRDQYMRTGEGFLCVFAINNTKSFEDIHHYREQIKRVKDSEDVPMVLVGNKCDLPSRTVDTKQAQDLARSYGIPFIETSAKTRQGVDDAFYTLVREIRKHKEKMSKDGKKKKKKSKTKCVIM

Structure (SMILES)	IC50 [1]	IC50 [2]
CC[C@H](C)[C@@H]1NC(=O)[C@H](C)N(CC)C(=O)C[C@@H](C)N(C)C(=O)[C@H](C(C)C)N(C)C(=O)C2(CCCC2)NC(=O)[C@@H]2CCCN2C(=O)[C@H](CCc2ccc(C(F)(F)F)c(Cl)c2)NC(=O)CN(C)C(=O)[C@H](CC2CCCCC2)N(C)C(=O)CN(C)C(=O)CN(C)C1=O [Compound 264] (cyclo([Ac5c][NMeV][NMedβ3hAla][NEtAla]I[Sar][Sar][NMeCha][Sar][hPhe(3-Cl-4-CF3)]P))	4.5 nM	100 to 500 nM
CC[C@H](C)[C@@H]1NC(=O)[C@H](CC(C)C)N(C)C(=O)C[C@@H](C(=O)N(C)C)N(C)C(=O)[C@H](C2CCCC2)N(C)C(=O)C2(CCCC2)NC(=O)[C@H](C)N(C)C(=O)[C@H](CCc2ccc(C(F)(F)F)c(Cl)c2)NC(=O)CN(C)C(=O)[C@H](CC2CCCCC2)N(C)C(=O)[C@@H]2CCN2C(=O)[C@H](C)N(C)C1=O [Compound 274] ([NMeL]I[NMeA][Aze][NMeCha][Sar][hPhe(3-Cl-4-CF3)][NMeA][Ac5c][NMeGly(cPent)][NMeD]-NMe2; lactam N-11)	0.82 nM	50 to 100 nM
CC[C@H](C)[C@@H]1NC(=O)[C@H](CC2CCCCC2)N(C)C(=O)C[C@@H](C)NC(=O)[C@H](C(C)C)N(C)C(=O)C2(CCCC2)NC(=O)[C@@H]2CCCN2C(=O)[C@H](CCc2ccc(C(F)(F)F)c(Cl)c2)NC(=O)CN(C)C(=O)[C@H](CC2CCCCC2)N(C)C(=O)CN(C)C(=O)CN(C)C1=O [Compound 285] (cyclo([Ac5c][NMeV][d(β3hA)][NMeCha]I[Sar][Sar][NMeCha][Sar][hPhe(3-Cl-4-CF3)]P))	52 nM	100 to 500 nM
C=CC[C@@]1(C)NC(=O)[C@@H]2CCCN2C(=O)[C@H](CCc2ccc(C(F)(F)F)c(Cl)c2)NC(=O)CN(C)C(=O)[C@H](CC2CCCCC2)N(C)C(=O)CN(C)C(=O)CN(C)C(=O)[C@H]([C@@H](C)CC)NC(=O)[C@H](CC(C)C)N(C)C(=O)C[C@@H](C(=O)N2CCCCC2)N(C)C(=O)[C@H](C(C)C)N(C)C1=O [Compound 287] ([NMeL]I[Sar][Sar][NMeCha][Sar][hPhe(3-Cl-4-CF3)]P[dαMeGly(allyl)][NMeV][NMeD]-Piperidide; lactam N-11)	5.1 nM	100 to 500 nM
CC[C@H](C)[C@@H]1NC(=O)[C@H](CC(C)C)N(C)C(=O)C[C@@H](C(=O)N(C)C)N(C)C(=O)[C@H]([C@@H](C)CC)N(C)C(=O)C2(CCCC2)NC(=O)[C@@H](C)N(C)C(=O)[C@H](CCc2ccc(C(F)(F)F)c(Cl)c2)NC(=O)CN(C)C(=O)[C@H](Cc2ccc(C)cc2)N(C)C(=O)[C@@H]2CCN2C(=O)[C@H](C)N(C)C1=O [Compound 288] ([NMeL]I[NMeA][Aze][NMePhe(4-Me)][Sar][hPhe(3-Cl-4-CF3)][dNMeA][Ac5c][NMeI][NMeD]-NMe2; lactam N-11)	1.7 nM	100 to 500 nM
CC[C@H](C)[C@@H]1NC(=O)[C@H](C)N(C)C(=O)C[C@@H](C(=O)N2CCCCC2)N(C)C(=O)[C@H](C2CCCCC2)N(C)C(=O)C2(CCCC2)NC(=O)[C@@H]2CCCN2C(=O)[C@H](CCc2ccc(Cl)cc2)NC(=O)CN(C)C(=O)[C@H](CC2CCCCC2)N(C)C(=O)CN(C)C(=O)CN(C)C1=O [Compound 292] ([NMeA]I[Sar][Sar][NMeCha][Sar][hPhe(4-Cl)]P[Ac5c][NMeChg][NMeD]-Piperidide; lactam N-11)	0.45 nM	50 to 100 nM
C#CCC[C@H]1C(=O)N[C@@H]([C@@H](C)CC)C(=O)N(C)CC(=O)N(C)CC(=O)N(C)[C@@H](Cc2ccc(I)cc2)C(=O)N(C)CC(=O)N[C@@H](CCc2ccc(C(F)(F)F)c(Cl)c2)C(=O)N2CCC[C@H]2C(=O)NC2(CCCC2)C(=O)N(C)[C@@H](C2CCCCC2)C(=O)N[C@H](C)CC(=O)N1C [Compound 300] (cyclo([Ac5c][NMeChg][d(β3hA)][NMeHpra]I[Sar][Sar][NMePhe(4-I)][Sar][hPhe(3-Cl-4-CF3)]P))	9.5 nM	100 to 500 nM
CC[C@H](C)[C@@H]1NC(=O)[C@H](CC(C)C)N(C)C(=O)C[C@@H](C(=O)N2CCCCC2)N(C)C(=O)[C@H](C2CCCCC2)N(C)C(=O)C2(CCCC2)NC(=O)[C@@H]2CCCN2C(=O)[C@H](CCc2ccc(C(F)(F)F)c(Cl)c2)NC(=O)CN(C)C(=O)[C@H](COC2CCC2)N(C)C(=O)CN(C)C(=O)CN(C)C1=O [Compound 309] ([NMeL]I[Sar][Sar][NMeS](Cyclobutyl)[Sar][hPhe(3-Cl-4-CF3)]P[Ac5c][NMeChg][NMeD]-Piperidide; lactam N-11)	0.75 nM	100 to 500 nM
CC[C@H](C)[C@@H]1NC(=O)[C@H](CC(C)C)N(C)C(=O)C[C@@H](C(=O)N2CCCCC2)N(C)C(=O)[C@H]([C@@H](C)CC)N(C)C(=O)C2(CCCC2)NC(=O)[C@@H]2CCCN2C(=O)[C@H](CCc2ccc(C(F)(F)F)c(Cl)c2)NC(=O)CN(C)C(=O)[C@H](CC2CCCCC2)N(C)C(=O)CN(C)C(=O)CN(C)C1=O [Compound 311] ([NMeL]I[Sar][Sar][NMeCha][Sar][hPhe(3-Cl-4-CF3)]P[Ac5c][NMeI][NMeD]-Piperidide; lactam N-11)	5.9 nM	20 to 50 nM
CC[C@H](C)[C@@H]1NC(=O)[C@H](CC2CCCCC2)N(C)C(=O)C[C@@H](C(=O)N2CCCCC2)N(C)C(=O)[C@H](C(C)C)N(C)C(=O)C2(CCCC2)NC(=O)[C@@H]2CCCN2C(=O)[C@H](CCc2ccc(C(F)(F)F)c(Cl)c2)NC(=O)CN(C)C(=O)[C@H](CC2CCCCC2)N(C)C(=O)CN(C)C(=O)CN(C)C1=O [Compound 321] ([NMeCha]I[Sar][Sar][NMeCha][Sar][hPhe(3-Cl-4-CF3)]P[Ac5c][NMeV][NMeD]-Piperidide; lactam N-11)	11 nM	100 to 500 nM
CC[C@H](C)[C@@H]1NC(=O)[C@H](CC(F)(F)F)N(C)C(=O)C[C@@H](C(=O)N2CCCC2)N(C)C(=O)[C@H](C2CCCCC2)N(C)C(=O)C2(CCCC2)NC(=O)[C@@H]2CCCN2C(=O)[C@H](CCc2ccc(C(F)(F)F)c(Cl)c2)NC(=O)CN(C)C(=O)[C@H](CC2CCCC2)N(C)C(=O)CN(C)C(=O)CN(C)C1=O [Compound 326] ([NMeAbu(4,4,4-F3)]I[Sar][Sar][NMeAla(cPent)][Sar][hPhe(3-Cl-4-CF3)]P[Ac5c][NMeChg][NMeD]-Pyrrolidide; lactam N-11)	0.7 nM	50 to 100 nM
CC[C@H](C)[C@@H]1NC(=O)[C@H](CC(C)C)N(C)C(=O)C[C@@H](C(=O)N2CCCCC2)N(C)C(=O)[C@H](CC(C)C)N(C)C(=O)C2(CCCC2)NC(=O)[C@@H]2CCCN2C(=O)[C@H](CCc2ccc(C(F)(F)F)c(F)c2)NC(=O)CN(C)C(=O)[C@H](Cc2ccc(Cl)cc2)N(CC)C(=O)CN(C)C(=O)CN(C)C1=O [Compound 328] ([NMeL]I[Sar][Sar][NEtPhe(4-Cl)][Sar][hPhe(3-F,4-CF3)]P[Ac5c][NMeL][NMeD]-Piperidide; lactam N-11)	94 nM	100 to 500 nM
CC[C@H](C)[C@@H]1NC(=O)[C@H](CC(C)C)N(C)C(=O)C[C@@H](C)N(C)C(=O)[C@H](C(C)C)N(C)C(=O)C2(CCCC2)NC(=O)[C@@H]2CCCN2C(=O)[C@H](CCc2ccc(C(F)(F)F)c(F)c2)NC(=O)CN(C)C(=O)[C@H](CC2CCCCC2)N(C)C(=O)CN(C)C(=O)CN(C)C1=O [Compound 337] (cyclo([Ac5c][NMeV][NMedβ3hAla][NMeL]I[Sar][Sar][NMeCha][Sar][hPhe(3-F,4-CF3)]P))	16 nM	100 to 500 nM
CC[C@H](C)[C@@H]1NC(=O)[C@H](C2CCC2)N(C)C(=O)C[C@@H](C(=O)N2CCCC2)N(C)C(=O)[C@H](C2CCCCC2)N(C)C(=O)C2(CCCC2)NC(=O)[C@@H]2CCCN2C(=O)[C@H](CCc2ccc(C(F)(F)F)c(Cl)c2)NC(=O)CN(C)C(=O)[C@H](Cc2ccc(C)cc2)N(C)C(=O)CN(C)C(=O)CN(C)C1=O [Compound 339] ([NMeGly(cBu)]I[Sar][Sar][NMePhe(4-Me)][Sar][hPhe(3-Cl-4-CF3)]P[Ac5c][NMeChg][NMeD]-Pyrrolidide; lactam N-11)	0.38 nM	20 to 50 nM
CC[C@H](C)[C@@H]1NC(=O)[C@H](CC(C)C)N(C)C(=O)C[C@@H](C(=O)N(C)C)N(C)C(=O)[C@H]([C@@H](C)CC)N(C)C(=O)C2(CCCC2)NC(=O)[C@H](Cc2ccc(C)cc2)N(C)C(=O)[C@H](CCc2ccc(C(F)(F)F)c(Cl)c2)NC(=O)CN(C)C(=O)[C@H](Cc2ccc(C)cc2)N(C)C(=O)[C@@H]2CCN2C(=O)[C@H](C)N(C)C1=O [Compound 340] ([NMeL]I[NMeA][Aze][NMePhe(4-Me)][Sar][hPhe(3-Cl-4-CF3)][NMePhe(4-Me)][Ac5c][NMeI][NMeD]-NMe2; lactam N-11)	4.7 nM	20 to 50 nM
CC[C@H](C)[C@@H]1NC(=O)[C@H](C2CCC2)N(C)C(=O)C[C@@H](C(=O)N2C3CCC2COC3)N(C)C(=O)[C@H](C2CCCCC2)N(C)C(=O)C2(CCCC2)NC(=O)[C@@H]2CCCN2C(=O)[C@H](CCc2ccc(C(F)(F)F)c(Cl)c2)NC(=O)CN(C)C(=O)[C@H](Cc2ccc(C)cc2)N(C)C(=O)CN(C)C(=O)CN(C)C1=O [Compound 353] ([NMeGly(cBu)]I[Sar][Sar][NMePhe(4-Me)][Sar][hPhe(3-Cl-4-CF3)]P[Ac5c][NMeChg][NMeD]-{3Oxa8azabicyclo(3.2.1)octane}; lactam N-11)	0.69 nM	50 to 100 nM
CC[C@H](C)[C@@H]1NC(=O)[C@H](CC(C)C)N(C)C(=O)C[C@@H](C)NC(=O)[C@H](C2CCCC2)N(C)C(=O)C(C)(C)NC(=O)[C@@H]2CCCN2C(=O)[C@H](CCc2ccc(C(F)(F)F)c(Cl)c2)NC(=O)CN(C)C(=O)[C@H](Cc2ccc(C)cc2)N(C)C(=O)[C@@H]2CCN2C(=O)[C@H](C)N(C)C1=O [Compound 354] (cyclo([Aib][NMeGly(cPent)][d(β3hA)][NMeL]I[NMeA][Aze][NMePhe(4-Me)][Sar][hPhe(3-Cl-4-CF3)]P))	1.6 nM	100 to 500 nM
